{"source": "patent US11504380B2", "about": "“Method of treatment of cirrhosis” (INVENTIVA, priority 2019, dated 2022)", "format_in_all_cases": "in vivo, Sprague Dawley rats", "key": {"[1]": {"system": "rat model of cirrhosis induced by the administration of thioacetamide (TAA)", "test": "Systemic and hepatic hemodynamics, ascites and body/organ weights in TAA-induced cirrhotic rats", "settings": "for IHVR (intrahepatic resistance) / PBF (portal blood flow) / PP (portal pressure): 100 mg/kg/day", "source_text": "Lanifibranor has been assessed in a rat model of cirrhosis induced by the administration of thioacetamide (TAA), which administration leads to the development of fibrosis in the early time points and then of cirrhosis in the late time points, turning for the majority of the animals to decompensated cirrhosis. Sprague Dawley rats (12-15 rats per groups) were intraperitoneally administered TAA (twice a week) for a period of twelve weeks to ensure reaching decompensated cirrhosis. At the end of this period, a TAA detoxification period of four days was observed. The rats were then orally administered for two weeks with either lanifibranor at 100 mg/kg/day in vehicle (methylcellulose 1%+poloxamer-188 0.1%), or with vehicle alone (control). At the end of the two weeks of treatment in vivo systemic and hepatic hemodynamics were determined and rats were then sacrificed, and plasma samples and liver tissue were harvested. The hemodynamics measurements were obtained as follow: mean arterial pressure (MAP) and heart rate (HR) were measured by cannulating the femoral artery; portal pressure (PP) was measured by cannulating the ileocolic vein, both with a heparinized p50 catheter (Portex) connected to a pressure probe; portal blood flow (PBF) was determined with the help of specific non-constrictive perivascular ultrasonic transit-time flow probe (Transonic Systems Inc.)."}, "[2]": {"system": "rat model of cirrhosis induced by the administration of thioacetamide (TAA)", "test": "Liver tissue protein levels by Western blot in TAA-induced cirrhotic rats", "settings": "TAA-exposed rats, 100 mg/kg, vs vehicle", "source_text": "(§1) Lanifibranor has been assessed in a rat model of cirrhosis induced by the administration of thioacetamide (TAA), which administration leads to the development of fibrosis in the early time points and then of cirrhosis in the late time points, turning for the majority of the animals to decompensated cirrhosis. Sprague Dawley rats (12-15 rats per groups) were intraperitoneally administered TAA (twice a week) for a period of twelve weeks to ensure reaching decompensated cirrhosis. At the end of this period, a TAA detoxification period of four days was observed. The rats were then orally administered for two weeks with either lanifibranor at 100 mg/kg/day in vehicle (methylcellulose 1%+poloxamer-188 0.1%), or with vehicle alone (control). At the end of the two weeks of treatment in vivo systemic and hepatic hemodynamics were determined and rats were then sacrificed, and plasma samples and liver tissue were harvested. Triton lysis buffer was used for protein extraction of liver tissue samples. Proteins were separated by molecular weight by electrophoresis using a sodium dodecylsulphate polyacrylamide gel, and transferred to a nitrocellulose membrane (Western blot)."}, "[3]": {"system": "rat model of cirrhosis induced by the administration of thioacetamide (TAA)", "test": "Liver histology (Sirius Red collagen staining) and electron microscopy of sinusoidal fenestrae in TAA-induced cirrhotic rats", "settings": "TAA-exposed rats, 100 mg/kg", "source_text": "as §1, with “Liver tissue samples” for “Triton lysis buffer was used”, “histology” for “protein extraction of liver tissue samples. Proteins”, “fixed in 4% formaldehyde (Sigma), embedded in paraffin, sectioned and stained with 0.1% Sirius Red in picric acid aqueous solution (Sigma). Sinusoidal fenestrae were analyzed” for “separated”, “electronic microscopy.” for “molecular weight by electrophoresis using a sodium dodecylsulphate polyacrylamide gel, and transferred to a nitrocellulose membrane (Western blot).”"}, "[4]": {"system": "rat model of cirrhosis induced by the administration of thioacetamide (TAA)", "test": "AST protein content in plasma of TAA-induced cirrhotic rats", "settings": "TAA-exposed rats, 100 mg/kg, vs vehicle, p<0.005 (FIG. 8)", "source_text": "as §1, with “harvested.” for “harvested. Triton lysis buffer was used for protein extraction of liver tissue samples. Proteins were separated by molecular weight by electrophoresis using a sodium dodecylsulphate polyacrylamide gel, and transferred to a nitrocellulose membrane (Western blot).”"}, "[5]": {"system": "rat model of cirrhosis induced by the administration of thioacetamide (TAA)", "test": "Liver tissue mRNA expression by qPCR in TAA-induced cirrhotic rats", "settings": "TAA-exposed rats, 100 mg/kg", "source_text": "as §1, with “RNA” for “Triton lysis buffer”, “extracted from” for “used for protein extraction of”, “tissue” for “tissue samples. Proteins were separated by molecular weight by electrophoresis”, “using Trizol (Life Technologies), and quantified with the help of” for “using”, “NanoDrop spectrophotometer. Reverse transcription was carried out following QuantiTect reverse transcription kit (Qiagen). qPCR was performed using PowerUp SYBR Green Master Mix (Thermo Fisher)” for “sodium dodecylsulphate polyacrylamide gel,”, “specific primers.” for “transferred to a nitrocellulose membrane (Western blot).”"}, "[6]": {"settings": "TAA-exposed rats, 100 mg/kg/day orally for two weeks"}, "[7]": {"settings": "TAA-exposed rats, 100 mg/kg/day orally for two weeks, listed as lanifibranor"}}, "data": [{"compound": "O=C(O)CCCc1cc2cc(Cl)ccc2n1S(=O)(=O)c1ccc2ncsc2c1", "note": "[Lanifibranor, 4-[1-(1,3-benzothiazol-6-ylsulfonyl)-5-chloroindol-2-yl]butanoic acid]", "values": [{"measurement": "Ascites", "setting": "[1]; [6]", "value": 16, "unit": "%"}, {"measurement": "MAP (mean arterial pressure)", "setting": "[1]; [6]", "value": "84 ± 2", "unit": "mmHg"}, {"measurement": "IHVR (intrahepatic resistance)", "setting": "[1]; [6]", "value": "0.53 ± 0.06", "unit": "mmHg · min/mL"}, {"measurement": "PBF (portal blood flow)", "setting": "[1]; [6]", "value": "23.5 ± 2.1", "unit": "mL/min"}, {"measurement": "PP (portal pressure)", "setting": "[1]; [6]", "value": "11.2 ± 0.5", "unit": "mmHg"}, {"measurement": "IHVR (intrahepatic resistance)", "setting": "[1]; [7]", "value": "0.75±0.1", "unit": "mmHg · min/mL"}, {"measurement": "PBF (portal blood flow)", "setting": "[1]; [7]", "value": "no significant changes"}, {"measurement": "PP (portal pressure)", "setting": "[1]; [7]", "value": "11.2±0.5", "unit": "mmHg"}, {"measurement": "systemic hemodynamics", "setting": "[1]; cirrhotic rats administered with lanifibranor vs vehicle", "value": "No effects"}, {"measurement": "protein level of Von Willebrand factor", "setting": "[2]; p<0.01 (FIG. 5)", "value": "significantly reduced"}, {"measurement": "α-SMA expression at protein level", "setting": "[2]; p<0.05 (FIG. 3a)", "value": "significantly reduced"}, {"measurement": "protein level of Desmin", "setting": "[2]; p<0.05 (FIG. 3b)", "value": "significantly reduced"}, {"measurement": "collagen deposition (PicroSirius Red, PSR, staining)", "setting": "[3]", "value": 12.3, "unit": "%"}, {"measurement": "sinusoidal capillarization (sinusoidal fenestrae)", "setting": "[3]; vs vehicle, p<0.05 (FIG. 4), electronic microscopy", "value": "significantly reduced"}, {"measurement": "histological decrease in collagen deposition compared to vehicle", "setting": "[3]; PicroSirius Red staining", "value": 32, "unit": "%"}, {"measurement": "AST protein content in plasma", "setting": "[4]", "value": "significantly decreased"}, {"measurement": "VCAM-1 mRNA expression", "setting": "[5]; vs vehicle (FIG. 6)", "value": "a trend"}, {"measurement": "E-Selectin mRNA", "setting": "[5]; vs vehicle, P<0.05 (FIG. 6)", "value": "significant decrease"}, {"measurement": "ICAM-1 mRNA", "setting": "[5]; vs vehicle, P<0.05 (FIG. 6)", "value": "significant decrease"}, {"measurement": "TIMP1 mRNA expression", "setting": "[5]; vs vehicle, p<0.001 (FIG. 2)", "value": "significantly reduced"}, {"measurement": "collagen 1a1 mRNA expression", "setting": "[5]; vs vehicle, p<0.005 (FIG. 1)", "value": "significant decrease"}, {"measurement": "α-SMA expression at mRNA level", "setting": "[5]; vs vehicle, p<0.005 (FIG. 3a)", "value": "significantly reduced"}, {"measurement": "TIMP2 mRNA expression", "setting": "[5]; vs vehicle, p<0.05 (FIG. 2)", "value": "significantly reduced"}, {"measurement": "IL-6 mRNA expression", "setting": "[5]; vs vehicle, p<0.05 (FIG. 7)", "value": "significantly decreased"}]}]}
